For six molecules, EC50 results are on record in patent US5677419A, “Cyclic vasoactive peptide analogs” (Hoffmann-La Roche Inc., priority 1994, dated 1997).

The subject of the experiment is guinea pig tracheal smooth muscle. The experiment in a line: Tracheal relaxant activity of VIP analogs on isolated guinea pig tracheal rings. It is filed as cell-based. The following applies: cumulative concentration response, relaxation as % of maximum response to VIP (10^-6 M=100%), three tissues pooled, linear regression. Here is the method:
The relaxant activity of the VIP analogs were studied in a model utilizing guinea pig trachea. [Wasserman, M. A. et al., in Vasoactive Intestinal Peptide, S. I. Said, ed., Raven Press, New York 1982, pp 177-184] All tissues were taken from male albino guinea pig weighing 400-600 g, anesthetized with urethane (2 g/kg, i.p.). After exanguination, the trachea were removed and divided into four ring segments (3 mm length). Each ring was suspended by 30 gauge stainless steel wires in a 10 mL jacketed tissue bath and attached via 4-0 silk thread to a GRASS force displacement transducer (model FT03C, Grass Instruments Co., Quincy, Mass.), for isometric recording of tension. The smooth muscle was bathed in modified Krebs solution of the following composition: NaCl, 120 mM; KCl, 4.7 mM; CaCl2, 2.5 mM; MgSO4.7H2 O, 1.2 mM; NaHCO3, 25 mM; K2 HPO4 monobasic, 1.2 mM; and dextrose, 10 mM. Tissue baths were maintained at 37° C. and constantly bubbled with 95% O2 and 5% CO2. Responses were recorded on an 8 channel and a 4 channel HEWLETT-PACKARD (model 7702B and 7754A, respectively) recorder (Hewlett- Packard, Paramus, N.J.). Tracheal rings were placed under a resting tension of 1.5 g which was determined to be at or near optimal in preliminary experiments. Frequent readjustments of tension were required during the 60 minute stabilization period which followed. Tissues were rinsed at 15 minute intervals.
Cumulative concentration response curves were obtained for each tissue by successive […] increases in the bath concentration of VIP or VIP analogs according to the method of VanRossum [Arch. Int. Pharmacodyn., 143, 299-330 (1963)]. Only one cumulative dose response curve was obtained on a single tissue. To minimize variability between tissues, relaxant responses were expressed as a percentage of the maximum response obtained to VIP (10^-6 M=100%) added at the end of each concentration response experiment. Responses obtained from three tissues were pooled and EC50 values were determined by linear regression.
The results summarized in Table I show the tracheal relaxant activity of the VIP analogs in comparison to native VIP.

Where a SMILES comes first, the peptide text is derived from it. Bridges are numbered along the chain shown (N, C = ends). [ ]: non-standard residue; d: D form. Nle = CCCC[C@H](N)C(=O)O; Orn = NCCC[C@H](N)C(=O)O

For orientation: EC50 means the concentration at which the effect is half-maximal. With `CCCC[C@H](NC(=O)[C@H](CCC(N)=O)NC(=O)[C@H](CCCCN)NC(=O)[C@H](CCCNC(=N)N)NC(=O)[C@H](CC(C)C)NC(=O)[C@@H]1CCCCNC(=O)C[C@H](NC(=O)[C@@H](NC(=O)[C@H](Cc2ccccc2)NC(=O)[C@@H](NC(=O)[C@H](C)NC(=O)[C@H](CC(=O)O)NC(=O)[C@H](CO)NC(=O)[C@H](Cc2c[nH]cn2)NC(C)=O)C(C)C)[C@@H](C)O)C(=O)N[C@@H](CC(N)=O)C(=O)N[C@@H](Cc2ccc(O)cc2)C(=O)N[C@@H]([C@@H](C)O)C(=O)N1)C(=O)N[C@@H](C)C(=O)N[C@H](C(=O)N[C@@H](CCCCN)C(=O)N[C@@H](CCCCN)C(=O)N[C@@H](Cc1ccc(O)cc1)C(=O)N[C@@H](CC(C)C)C(=O)N[C@@H](CC(N)=O)C(=O)N[C@@H](CO)C(=O)N[C@H](C(=O)N[C@@H](CC(C)C)C(=O)N[C@H](C(N)=O)[C@@H](C)O)C(C)C)C(C)C` [SEQ ID NO:20, Ac-[Lys^12,Nle^17,Val^26,Thr^28]-VIP cyclo (Asp^8 →Lys^12)] (Ac-HSDAVFTDNYTKLRKQ[Nle]AVKKYLNSVLT-NH2; lactam 8-12), the EC50 was determined as 14 nM.

`CCCC[C@H](NC(=O)[C@H](CCC(N)=O)NC(=O)[C@H](CCCCN)NC(=O)[C@H](CCCNC(=N)N)NC(=O)[C@H](CC(C)C)NC(=O)[C@@H]1CCCCNC(=O)CC[C@H](NC(=O)[C@@H](NC(=O)[C@H](Cc2ccccc2)NC(=O)[C@@H](NC(=O)[C@H](C)NC(=O)[C@H](CC(=O)O)NC(=O)[C@H](CO)NC(=O)[C@H](Cc2c[nH]cn2)NC(C)=O)C(C)C)[C@@H](C)O)C(=O)N[C@@H](CC(N)=O)C(=O)N[C@@H](Cc2ccc(O)cc2)C(=O)N[C@@H]([C@@H](C)O)C(=O)N1)C(=O)N[C@@H](C)C(=O)N[C@H](C(=O)N[C@@H](CCCCN)C(=O)N[C@@H](CCCCN)C(=O)N[C@@H](Cc1ccc(O)cc1)C(=O)N[C@@H](CC(C)C)C(=O)N[C@@H](CC(N)=O)C(=O)N[C@@H](CO)C(=O)N[C@H](C(=O)N[C@@H](CC(C)C)C(=O)N[C@H](C(N)=O)[C@@H](C)O)C(C)C)C(C)C` [SEQ ID NO:21, Ac-[Glu^8,Lys^12,Nle^17,Val^26,Thr^28]-VIP cyclo (Glu^8 →Lys^12)] (Ac-HSDAVFTENYTKLRKQ[Nle]AVKKYLNSVLT-NH2; lactam 8-12) registered an EC50 of 34 nM. This EC50 is about 2.4-fold higher than that of the molecule before.

`CCCC[C@H](NC(=O)[C@H](CCC(N)=O)NC(=O)[C@H](CCCCN)NC(=O)[C@H](CCCNC(=N)N)NC(=O)[C@H](CC(C)C)NC(=O)[C@@H]1CCCCNC(=O)C[C@H](NC(=O)[C@H](CC(N)=O)NC(=O)[C@@H](NC(=O)[C@H](Cc2ccccc2)NC(=O)[C@@H](NC(=O)[C@H](C)NC(=O)[C@H](CC(=O)O)NC(=O)[C@H](CO)NC(=O)[C@H](Cc2c[nH]cn2)NC(C)=O)C(C)C)[C@@H](C)O)C(=O)N[C@@H](Cc2ccc(O)cc2)C(=O)N[C@@H]([C@@H](C)O)C(=O)N1)C(=O)N[C@@H](C)C(=O)N[C@H](C(=O)N[C@@H](CCCCN)C(=O)N[C@@H](CCCCN)C(=O)N[C@@H](Cc1ccc(O)cc1)C(=O)N[C@@H](CC(C)C)C(=O)N[C@@H](CC(N)=O)C(=O)N[C@@H](CO)C(=O)N[C@H](C(=O)N[C@@H](CC(C)C)C(=O)N[C@H](C(N)=O)[C@@H](C)O)C(C)C)C(C)C` [SEQ ID NO:22, Ac-[Asn^8,Asp^9,Lys^12,Nle^17,Val^26,Thr^28]-VIP cyclo (Asp^9 →Lys^12)] (Ac-HSDAVFTNDYTKLRKQ[Nle]AVKKYLNSVLT-NH2; lactam 9-12) displayed an EC50 of 17 nM.

Molecule `CCCC[C@H](NC(=O)[C@H](CCC(N)=O)NC(=O)[C@H](CCCCN)NC(=O)[C@H](CCCNC(=N)N)NC(=O)[C@H](CC(C)C)NC(=O)[C@@H]1CCCNC(=O)C[C@H](NC(=O)[C@@H](NC(=O)[C@H](Cc2ccccc2)NC(=O)[C@@H](NC(=O)[C@H](C)NC(=O)[C@H](CC(=O)O)NC(=O)[C@H](CO)NC(=O)[C@H](Cc2c[nH]cn2)NC(C)=O)C(C)C)[C@@H](C)O)C(=O)N[C@@H](CC(N)=O)C(=O)N[C@@H](Cc2ccc(O)cc2)C(=O)N[C@@H]([C@@H](C)O)C(=O)N1)C(=O)N[C@@H](C)C(=O)N[C@H](C(=O)N[C@@H](CCCCN)C(=O)N[C@@H](CCCCN)C(=O)N[C@@H](Cc1ccc(O)cc1)C(=O)N[C@@H](CC(C)C)C(=O)N[C@@H](CC(N)=O)C(=O)N[C@@H](CO)C(=O)N[C@H](C(=O)N[C@@H](CC(C)C)C(=O)N[C@H](C(N)=O)[C@@H](C)O)C(C)C)C(C)C` [SEQ ID NO:23, Ac-[Orn^12,Nle^17,Val^26,Thr^28]-VIP cyclo (Asp^8 →Orn^12)] (Ac-HSDAVFTDNYT[Orn]LRKQ[Nle]AVKKYLNSVLT-NH2; lactam 8-12) came in with a concentration giving a half-maximal response (EC50) of 40 nM. Compared with the last molecule, the EC50 is about 2.4-fold higher.

Take `CCCC[C@H](NC(=O)[C@H](CCC(N)=O)NC(=O)[C@H](CCCCN)NC(=O)[C@H](CCCNC(=N)N)NC(=O)[C@H](CC(C)C)NC(=O)[C@@H]1CC(=O)NCCCC[C@H](NC(=O)[C@@H](NC(=O)[C@H](Cc2ccccc2)NC(=O)[C@@H](NC(=O)[C@H](C)NC(=O)[C@H](CC(=O)O)NC(=O)[C@H](CO)NC(=O)[C@H](Cc2c[nH]cn2)NC(C)=O)C(C)C)[C@@H](C)O)C(=O)N[C@@H](CC(N)=O)C(=O)N[C@@H](Cc2ccc(O)cc2)C(=O)N[C@@H]([C@@H](C)O)C(=O)N1)C(=O)N[C@@H](C)C(=O)N[C@H](C(=O)N[C@@H](CCCCN)C(=O)N[C@@H](CCCCN)C(=O)N[C@@H](Cc1ccc(O)cc1)C(=O)N[C@@H](CC(C)C)C(=O)N[C@@H](CC(N)=O)C(=O)N[C@@H](CO)C(=O)N[C@H](C(=O)N[C@@H](CC(C)C)C(=O)N[C@H](C(N)=O)[C@@H](C)O)C(C)C)C(C)C` [SEQ ID NO:24, Ac-[Lys^8,Asp^12,Nle^17,Val^26,Thr^28]-VIP cyclo (Lys^8 →Asp^12)] (Ac-HSDAVFTKNYTDLRKQ[Nle]AVKKYLNSVLT-NH2; lactam 8-12): the EC50 stood at 38 nM.

For the molecule `CCCC[C@H](NC(=O)[C@H](CCC(N)=O)NC(=O)[C@H](CCCCN)NC(=O)[C@H](CCCNC(=N)N)NC(=O)[C@H](CC(C)C)NC(=O)[C@@H]1CCCNC(=O)CC[C@H](NC(=O)[C@@H](NC(=O)[C@H](Cc2ccccc2)NC(=O)[C@@H](NC(=O)[C@H](C)NC(=O)[C@H](CC(=O)O)NC(=O)[C@H](CO)NC(=O)[C@H](Cc2c[nH]cn2)NC(C)=O)C(C)C)[C@@H](C)O)C(=O)N[C@@H](CC(N)=O)C(=O)N[C@@H](Cc2ccc(O)cc2)C(=O)N[C@@H]([C@@H](C)O)C(=O)N1)C(=O)N[C@@H](C)C(=O)N[C@H](C(=O)N[C@@H](CCCCN)C(=O)N[C@@H](CCCCN)C(=O)N[C@@H](Cc1ccc(O)cc1)C(=O)N[C@@H](CC(C)C)C(=O)N[C@@H](CC(N)=O)C(=O)N[C@@H](CO)C(=O)N[C@H](C(=O)N[C@@H](CC(C)C)C(=O)N[C@H](C(N)=O)[C@@H](C)O)C(C)C)C(C)C` [SEQ ID NO:25, Ac-[Glu^8,Orn^12,Nle^17,Val^26,Thr^28]-VIP cyclo (Glu^8 →Orn^12)] (Ac-HSDAVFTENYT[Orn]LRKQ[Nle]AVKKYLNSVLT-NH2; lactam 8-12), a half-maximal response (EC50) required 16 nM.
